Laboratory results reported in patent publication US9290528B1, “Light-activated compounds” (University of Kentucky Research Foundation, priority 2013, dated 2016).
“And” between values parts separate entries of the source, which are not always exact repeats. Equal values may be shown once. Read-outs that look alike come from different tables or passages of the source.

What was measured:
A549 lung cancer cells = assay: Cell survival assay, A549 monolayer; assay type: cell-based
Experimental: (§1) The HL60 promyelocytic leukemia cell line was obtained from ATCC and cultured in IMDM media (Invitrogen; Carlsbad, Calif.) supplemented with 10% serum supreme (Lonza; Basel, Switzerland) and penicillin/streptomycin at 37° C. with 5% CO2. The A549 cell line was donated and cultured in DMEM supplemented with glutamax, 10% serum supreme, and penicillin/streptomycin at 37° C. with 5% CO2. Cells were plated in Optimem (Life Technologies; Carlsbad, Calif.) supplemented with 1% serum supreme and penicillin/streptomycin at 30,000 cells per well in Costar 96 well flat bottom clear tissue culture treated plates for HL60 and 1500 cells/well for A549. […] The cells were then incubated for 72 hours followed by the addition of Cell Titer Glo (Promega; Madison, Wis.) to determine viability. Dark controls were run in parallel. The resulting luminescence was measured using the SpectraFluor Plus Plate Reader (Tecan). Data were fit to an equation for a sigmoidal dose response using the equation below, where yi and yf are the initial and final signal intensities.
(§2) Cell cytotoxicity studies were performed in HL60 leukemia cells and A549 lung cancer cells (see FIG. 7 and Table 3). Cells were incubated with compounds for 12 hours in the dark before irradiated with >450 nm light (410 W) for 3 minutes. Dark controls were run in parallel. Cell survival was quantified 72 hours later through the use of an ATP luciferase assay, and confirmed by Trypan Blue staining and manual counting.

A549 cells [1] = assay: Glutathione assay in A549 cells (cytoprotection); assay type: cell-based; conditions: co-dosed with increasing GSH
Experimental: A549 cells were plated in Optimem supplemented with 1% serum supreme and penicillin/streptomycin in 96 well plates as described above. […] Cellular viability was determined by measuring ATP concentration with CellTiter Glo (Promega). Data were fit to an equation for sigmoidal dose response shown above using the Prism software package.

[2] = Photoejection followed by UV/Vis absorption spectroscopy (Example 2); conditions: >450 nm light
Experimental: Absorption spectra were obtained on an Agilent 8453 Diode Array spectrophotometer (Santa Clara, Calif.). Photoexpulsion experiments were performed using a Dell 200 Watt 1410X projector (for in vitro photoejection experiments) or 410 Watt 955 Model 900 AJH projector (for cell cytotoxicity studies) (Dell Inc.; Round Rock, Tex.) fitted with an Edmund Optics filter (NT43-935) (Barrington, N.J.). UV/Vis experiments were performed in a 1-cm pathlength quartz cuvette located 18 inches from the projector. Kinetics were fit using the equation for a single exponential with the Prism software package.

pUC19 plasmid [3] = assay: Plasmid-compound gel analysis (Example 2); conditions: visible light 200 W, 1 hour
Experimental: Plasmid-compound gel analysis: Plasmid pUC19 was obtained from Bio-Rad (Hercules, Calif.), transformed into DH5a cells and positive transformants were selected by colony formation on Ampicillin LB-Agar plates. Colonies were grown in LB and plasmid isolated using a Maxi-prep plasmid isolation kit (Qiagen; Velno, Netherlands). Plasmid amounts were quantified by UV/VIS. For dosing studies, 40 μg/ml of plasmid was incubated with compound dosed from 0 to 500 μM in 96 well plates. They were incubated for 30 min prior to light activation for 1 hour using a Dell 1410x 200 W projector fitted with a >450 nm cut-off filter. Dark controls were performed by keeping the DNA:compound mixtures in the dark. The samples were incubated overnight after light activation before gel analysis; the dark samples were also incubated for the same time period. Linear plasmid and relaxed circle plasmid were generated and run side-by-side with compound treated samples. Linear plasmid was generated using the EcoRI restriction enzyme (New England BioLabs; Ipswich, Mass.) following the manufacturers protocol. Single cut, relaxed circle, plasmid was generated using the copper phenanthroline reaction. Reaction was carried out in 10 mM phosphate buffer pH 7.5, with 40 μg/ml plasmid, 1 mM DTT, 1 mM hydrogen peroxide, and 5 μM copper phenanthroline for 30 min at 25° C. The addition of DTT reduced the copper phenanthroline to the +1 charge state, followed by reaction with peroxide created the damage to the DNA. Samples were resolved on a 1% non-EB (ethidium bromide) agarose gel followed by 40 minutes of staining with 0.5 μg/ml EB in Tris-Acetate buffer followed by 40 minutes of destaining in Tris-Acetate before imaging.

[4] = test system: HL60 promyelocytic leukemia cell line; assay: Cell survival assay, HL60; assay type: cell-based
Experimental: as §1, §2

pUC19 plasmid [5] = assay: Glutathione assay: pUC19 crosslinking with increasing GSH; assay type: biochemical; conditions: 30 μM compound, 0.01-40 mM GSH; 4 light-activated
Experimental: The concentrations of GSH were 0.01, 0.1, 1, 10, 40 mM, giving a molar ratio between the compounds and glutathione of a) 1:0.3, b) 1:3.3, c) 1:33, d) 1:333, e) 1:1333. […] Control reactions with pUC19 in the presence and absence of GSH were carried out for 12 hrs in the dark with 25 μg/ml plasmid and 40 mM GSH in 10 mM phosphate buffer, pH 7.5. The plasmid was resolved on a 1% agarose gel as described above.
(§3) The photoactivated DNA crosslinking Ru(bpy)2 species retained its ability to damage DNA, even at higher GSH concentrations.

[6] = Interaction of prodrug compounds with GSH by UV/Vis spectroscopy; assay type: physicochemical; conditions: period of days
Excerpt: as §3

[7] = test system: HL60 leukemia cells and A549 lung cancer cells; assay: Cell cytotoxicity studies, summary over HL60 and A549; assay type: cell-based
Experimental: as §1, §2

[8] = Light and dark cytotoxicity of exemplary compounds (Table 6); assay type: cell-based; conditions: for IC50: cell line not stated; for Phototoxicity Index: dark IC50/light IC50
Excerpt: This Example describes additional specific embodiments the presently-disclosed subject matter. […] The methods for making and characterizing the compounds are based on the methodologies described in the previous examples.

A549 tumor spheroids = assay: A549 tumor spheroid cytotoxicity; assay type: cell-based
Experimental: A549 cells were seeded at 2,500 cells/well in 1.5% agarose coated 96-well plates. After 7 days the spheroids were dosed with compounds and incubated for 12 hrs. […] Cellular viability was determined 72 hours after light activation for the irradiated samples and at the same time point for the dark samples by measuring ATP concentration with CellTiter Glo (Promega). Data were fit to an equation for sigmoidal dose response shown above using the Prism software package.
3D tumor spheroids were used to test the compounds. Spheroids provide a system that approximates the complexity of in vivo tumors. These spheroids mimic the pathophysiology of tumors, including hypoxic/necrotic regions, changes in cell shape, high proportions of quiescent cells, alterations in gene expression profiles, and diminished permeability to drugs. […] To characterize the light-activated ruthenium compounds under more challenging and biologically relevant conditions, efficacy was assessed in a 3D tumor model by forming tumor spheroids with A549 cells.
Spheroids of about 600 μm in diameter were dosed with compounds and then either kept in the dark or irradiated with >450 nm light for 3 minutes.

CT DNA = assay: DNA binding affinity (Kb) with CT DNA; design: species or system calf; conditions: racemic mixtures
Excerpt: Intercalation of both complexes was consistent with the reduced mobility of supercoiled plasmid DNA in agarose gels, and the modulation of the absorption spectra in the presence of DNA, characterized by hypochromism of both the π-π* of the dppz ligand and the MLCT transitions, with maximal effect at a ratio of 2:1 DNA base pairs to metal center. Thus, the strained complex retained DNA-sensing capabilities of other Ru^II “light-switch” molecules and photochemical reactivity.

[9] = test system: G-quadruplex [AGGG(TTAGGG)3]; assay type: physicochemical
Excerpt: (§4) The G-quadruplex sequence is [NT].

15 mer oligonucleotide A = assay type: physicochemical
Excerpt: as §4

[10] = Photoejection half-life of 8 in solvents; assay type: physicochemical; conditions: D2O vs H2O
Excerpt: The photochemical behaviour of 8 paralleled the photophysical characteristics of unstrained Ru^II complexes containing the dppz ligand.

calf thymus (CT) DNA = assay type: physicochemical; conditions: bovine
pUC19 plasmid DNA = pUC19 plasmid DNA damage by gel electrophoresis (Example 4); assay type: biochemical; conditions: for DNA damage when exposed to light: 40 J/cm^2 >400 nm light
Experimental: Their DNA damaging properties were assessed with pUC19 plasmid DNA using gel electrophoresis. […] Samples were then incubated for 24 hours at room temperature protected from light. Controls were prepared to simulate single and double strand DNA breaks, and the DNA samples resolved on agarose gels. Samples were resolved using 1% agarose gels prepared in tris-acetate (TA) buffer. Each lane was loaded with 0.3 μg of pUC19 and the samples run for 90 minutes at […]. The gels were stained with 500 ng/mL ethidium bromide in TA buffer at room temperature for 40 minutes. […] In contrast, 10 is a more hydrophilic molecule, and the negatively charged sulfonate functional groups were anticipated to cause electrostatic repulsions between the complex and the negatively charged backbone of the DNA. DNA precipitation or smearing was not observed with up to 500 μM of […] (FIG. 12B).

HL60 cells [11] = assay: Cell viability as a function of time; assay type: cell-based, human; conditions: irradiated; for cell viability: 2 hours
A549 cells [12] = assay: Uptake and subcellular localization by Apoptome microscopy; assay type: cell-based, human
Experimental: The emission of 9 and 10 was measured in A549 cells using an Apoptome microscope. The relative rates of uptake of each of the complexes were analyzed as a function of time, and both 9 and 10 were visible inside cells as early as 2 hours after compound addition, consistent with the flow data and the ICP-OES results. Images were taken at 2, 8, 18 and 24 hours, and intracellular levels of both complexes appeared to plateau around 8 hours.
Differences in the intracellular localization of 9 and 10 were evaluated by determining colocalization of luminescence of the compound and fluorescent markers of organelles in A549 cells. Overlap in signals between the compounds, cellular nucleus, mitochondria and lysosome was measured over a 24 hour period.

HL60 cells [13] = test system: HL60 cells
HL60 cells [14] = assay: Mitochondrial membrane potential (TMRE); assay type: cell-based, human; conditions: for effect on mitochondrial potential: dark and irradiated
Excerpt: FIGS. 14A to 14D includes charts showing mitochondrial potential and cell viability of HL60 cells as a function of time for (FIG. 14A) 9, dark, (FIG. 14B) 9, irradiated; (FIG. 14C) 10, dark; (FIG. 14D) 10, irradiated. TMRE was used to quantify membrane potential; values are relative to a no-compound control value of 100.
TMRE is a cationic dye that accumulates in active motochondria as a result of the negative membrane potential (Δψm).

HL60 cells [15] = assay: Western blot of PARP and caspase 3 cleavage; assay type: cell-based, human; conditions: for 55 kDa PARP fragment (marker for necrosis): protected from light and irradiated
Experimental: Given the different cellular localization properties and time profiles for cell death induced by 9 and 10, the mechanism of cell death was investigated. Indicators of apoptotic cell death (activation of PARP and caspase 3 through proteolysis) were determined in HL60 cells treated with either 9 or 10 (FIGS. 15A and 15B).
The generation of an alternate 55 kDa PARP fragment was determined by immunoblot as a marker for necrosis with 10% (v/v) ethanol used as a control that induces necrosis.

HL60 cells [16] = test system: HL60 cells; remark: listed apart in the source
HL60 cells [17] = assay: Genomic DNA laddering by gel electrophoresis; assay type: cell-based, human; conditions: dark / not irradiated
Excerpt: To further analyze the mechanisms of cell death induced by 9 and 10, the degradation pattern of genomic DNA was investigated. DNA laddering was observed as a result of DNA fragmentation stemming from the execution phase of apoptosis. In contrast, necrotic cell death lacked this characteristic laddering effect, allowing differentiation between these two mechanisms. […] This laddering was absent in the cells treated with ethanol and compounds 9 and 10 in the dark. […] In contrast, given the cytotoxicity of 9 in the dark and the presence of the 55 kDa PARP fragment, it appears that necrotic cell death is one pathway for […]. For compound 10 the absence of DNA laddering may be a result of the lack of cytotoxicity of the negatively charged compound.

Log P = assay type: physicochemical

## Cc1cccc(-c2cccc(C)n2)n1.F[P-](F)(F)(F)(F)F.F[P-](F)(F)(F)(F)F.[Ru+2].c1ccc(-c2ccccn2)nc1.c1ccc(-c2ccccn2)nc1 [Compound 4, Ru(bpy)2-6,6′dmbpy]
A549 lung cancer cells; 3 min >450 nm light, 72 hours, read-out: Light IC50 A549
  IC50: 1.1 µM
A549 lung cancer cells; dark, read-out: Dark IC50 A549
  IC50: 150 µM
A549 lung cancer cells; ratio of dark and light IC50
  Phototoxicity Index, PI A549: 136
A549 cells [1]
  effect of GSH on cytotoxicity: not
[2]
  reaction kinetics of 4 relative to 5: 30 fold
pUC19 plasmid [3]
  type of DNA damage upon visible light: DNA photobinding
[4]; 3 min >450 nm light, 72 hours, read-out: Light IC50 HL60
  IC50: 1.6 µM
[4]; dark, read-out: Dark IC50 HL60
  IC50: > 300 µM
[4]; ratio of dark and light IC50
  Phototoxicity Index, PI HL60: >188
pUC19 plasmid [5]
  plasmid DNA crosslinking in presence of increasing GSH: greater DNA binding than cisplatin
[6]
  interaction with GSH: did not interact with GSH
[7]; >450 nm light 3 minutes vs dark
  activity light versus dark: light-triggered toxicity
[7]; after irradiation
  IC50 values after irradiation: single μM IC50 values
[7]; dark
  dark toxicity (none observed up to this concentration): > 300 µM
[8]; read-out: Dark IC50
  IC50: 300 µM
[8]; read-out: Light IC50
  IC50: 1.5 µM
[8]
  Phototoxicity Index: 200
A549 tumor spheroids; 3 min >450 nm light, 72 hours, read-out: Light IC50 A549 spheroid
  IC50: 21 µM and 21.3 µM
A549 tumor spheroids; dark, read-out: Dark IC50 A549 spheroid
  IC50: > 300 µM
A549 tumor spheroids; ratio of spheroid and monolayer culture IC50
  MCR Index: 19.4

## Ru(bpy)2dmdppz [Compound 8]
CT DNA
  Kb: 3e+07 M⁻¹
[9]
  Half-life: 13.5 min
[9]; bound to G-quadruplex
  increase of photoejection rate compared to CT DNA: 3 fold
15 mer oligonucleotide A
  Half-life: 31 ± 0.5 min
[10]
  isotope effect of ejection: > 3.4
[8]; read-out: Dark IC50
  IC50: 65 µM
[8]; read-out: Light IC50
  IC50: 14 µM
[8]
  Phototoxicity Index: 4.6
Calf thymus (CT) DNA
  Half-life: 41 ± 2 min
  t1/2 values: 31 to 41 min

## O=S(=O)([O-])c1ccc(-c2ccnc3c2ccc2c(-c4ccc(S(=O)(=O)[O-])cc4)ccnc23)cc1.O=S(=O)([O-])c1ccc(-c2ccnc3c2ccc2c(-c4ccc(S(=O)(=O)[O-])cc4)ccnc23)cc1.O=S(=O)([O-])c1ccc(-c2ccnc3c2ccc2c(-c4ccc(S(=O)(=O)[O-])cc4)ccnc23)cc1.[Ru+2] [Compound 10, Ru(bathophenanthorlinedisulfonate)3]
pUC19 plasmid DNA
  DNA damage when exposed to light: induced single strand DNA breaks
HL60 cells [11]
  cell viability: 70±12%
HL60 cells [11]; 24 hours
  viable cells remaining: 70% and 59±4%
HL60 cells [11]; 48 hours
  viable cells remaining: 55%
A549 cells [12]
  time at which intracellular levels plateau: around 8 hours
HL60 cells [13]
  amount within the cells after irradiation: 1.6%
HL60 cells [14]
  effect on mitochondrial potential: did not significantly reduce the mitochondrial potential
HL60 cells [15]; absence of light
  PARP and caspase 3 activation: did not display PARP or caspase 3 cleavage
HL60 cells [15]; irradiated
  PARP and caspase 3 activation: induced PARP as early as 2 hours
HL60 cells [15]
  55 kDa PARP fragment (marker for necrosis): lower level of the 55 kDa PARP fragment
HL60 cells [16]
  increase of average emission of cells between 2 and 24 hours: 4 fold
HL60 cells [17]
  genomic DNA laddering: absent
Log P
  Log P: −2.2 ± 0.12

## Ru(bathophenanthroline)3 [Compound 9]
pUC19 plasmid DNA
  DNA damage when exposed to light: induced single strand DNA breaks
pUC19 plasmid DNA; light and dark
  concentrations at which precipitation of the complex with the DNA was observed: above 31.3 μM
HL60 cells [11]
  time to cell death after irradiation: ≤ 2 h
  cell viability: about 0%
A549 cells [12]
  time at which intracellular levels plateau: around 8 hours
HL60 cells [14]
  effect on mitochondrial potential: rapid and complete depolarization of mitochondria
HL60 cells [14]; dark, 2 hours post treatment
  mitochondrial function: completely impaired
HL60 cells [14]; within 2 hours of irradiation
  mitochondrial function: about 0%
HL60 cells [15]; absence of light
  PARP and caspase 3 activation: after 18 and 24 hours and to a lesser degree
HL60 cells [15]; irradiated
  PARP and caspase 3 activation: induced the proteolytic activation of both PARP and caspase 3 within 2 hours of irradiation
HL60 cells [15]
  55 kDa PARP fragment (marker for necrosis): produced this fragment at significant levels
HL60 cells [17]
  genomic DNA laddering: absent
Log P
  Log P: 1.8 ± 0.02
